Experimental data: ChEMBL document CHEMBL1177695, “Discovery and development of natural product-derived chemotherapeutic agents based on a medicinal chemistry approach” (J Nat Prod, 2010); call rule not given here
≈ marks a conversion by molar mass, not a printed value.

How the values were obtained:
[1] = Therapeutic index, ratio of IC50 for human H9 cells to EC50 for HIV 3B; format: cell-based; conditions: read-out: TI
[2] = test system: Human immunodeficiency virus 1; assay: Antiviral activity against HIV1 3B infected in H9 cells assessed as inhibition of viral replication by p24 antigen ELISA; format: functional, organism-based
PC-3 = assay: Cytotoxicity against human PC3 cells after 3 days by sulforhodamine B assay; format: functional, cell-based; conditions: PC-3, 72 h
A549 = assay: Cytotoxicity against human A549 cells after 3 days by sulforhodamine B assay; format: functional, cell-based; conditions: A549, 72 h
[3] = Cytotoxicity against human KBVIN cells after 3 days by sulforhodamine B assay; format: functional, cell-based; conditions: 72 h
KB [4] = assay: Cytotoxicity against human KB cells after 3 days by sulforhodamine B assay; format: functional, cell-based; conditions: 72 h
A-431 = assay: Cytotoxicity against human A431 cells after 3 days by sulforhodamine B assay; format: functional, cell-based; conditions: A-431, 72 h
1A9 = assay: Cytotoxicity against human 1A9 cells after 3 days by sulforhodamine B assay; format: functional, cell-based; conditions: 1A9, 72 h
HCT-8 = assay: Cytotoxicity against human HCT8 cells after 3 days by sulforhodamine B assay; format: functional, cell-based; conditions: HCT-8, 72 h
[5] = Cytotoxicity against human H9 cells after 4 days by coulter counter; format: cell-based; conditions: human, H9 cells; read-out: TI
[6] = test system: Human immunodeficiency virus 1; assay: Antiviral activity against HIV1 infected in human H9 cells after 4 days by p24 antigen ELISA; format: functional, organism-based; conditions: Human immunodeficiency virus 1, H9, 96 h
[7] = Therapeutic index, ratio of IC50 for human H9 cells to EC50 for HIV1; format: cell-based; conditions: read-out: TI
[8] = Inhibition of tubulin polymerization
[9] = Cytotoxicity against human KB1 cells after 72 hrs by MTT assay; format: functional, cell-based; conditions: KB1, 72 h
[10] = Cytotoxicity against human KB-7d cells after 72 hrs by MTT assay; format: functional, cell-based; conditions: KB7D
KB [11] = assay: Cytotoxicity against human etoposide-resistant KB cells after 72 hrs by MTT assay
KB [12] = assay: Cytotoxicity against human KB cells after 72 hrs by MTT assay; format: functional, cell-based
[13] = Human immunodeficiency virus 1, 3B, H9, read-out: EC50
[14] = read-out: ED50 (the source's name)

COc1cc2c(c(OC)c1OC)-c1c(cc3c(c1OC)OCO3)[C@H](OC(=O)c1ccccc1)[C@@](C)(O)[C@@H](C)C2 [GOMISIN G]
selectivity ratio [1]: 600
EC50 [2, 13]: 0.011 µM

Cc1cc2ccc3c(c2oc1=O)[C@@H](OC(=O)C12CCC(C)(C(=O)O1)C2(C)C)[C@@H](OC(=O)C12CCC(C)(C(=O)O1)C2(C)C)C(C)(C)O3 (some centres not stated)
EC50 ([2]; h9): Not Active

C[C@@H]1C[C@H](O)[C@H](O)[C@@H](O[C@H]2CC[C@]3(C=O)[C@H]4CC[C@]5(C)[C@@H](c6ccc(=O)oc6)CC[C@]5(O)[C@@H]4CC[C@]3(O)C2)O1 [KALANCHOSIDE C]
IC50 (PC-3): 0.025 µg/mL (≈ 0.0457 µM)
IC50 (A549): 0.006 µg/mL (≈ 0.011 µM)
IC50 [3]: 0.026 µg/mL (≈ 0.0476 µM)
IC50 (KB [4]): 0.016 µg/mL (≈ 0.0293 µM)
IC50 (A-431): 0.055 µg/mL (≈ 0.101 µM)
IC50 (1A9): 0.012 µg/mL (≈ 0.022 µM)
IC50 (HCT-8): 0.045 µg/mL (≈ 0.0823 µM)

C[C@@H]1O[C@@H](O[C@H]2CC[C@]3(C=O)[C@H]4CC[C@]5(C)[C@@H](c6ccc(=O)oc6)CC[C@]5(O)[C@@H]4CC[C@]3(O)C2)[C@@H](O)[C@H](O)[C@@H]1O [KALANCHOSIDE B]
IC50 (PC-3): 0.01 µg/mL (≈ 0.0178 µM)
IC50 (A549): 0.001 µg/mL (≈ 0.00178 µM)
IC50 [3]: 0.013 µg/mL (≈ 0.0231 µM)
IC50 (KB [4]): 0.005 µg/mL (≈ 0.00889 µM)
IC50 (A-431): 0.022 µg/mL (≈ 0.0391 µM)
IC50 (1A9): 0.007 µg/mL (≈ 0.0124 µM)
IC50 (HCT-8): 0.015 µg/mL (≈ 0.0267 µM)

C[C@]12CCC[C@]3(C(=O)OC1)[C@@H]2CC[C@@]12C[C@@H](CC[C@H]13)[C@](C)(O)C2 [NEOTRIPTERIFORDIN]
selectivity ratio [1]: 125
EC50 [2, 13]: 0.025 µM

COc1cc(=O)oc2c3c(ccc12)OC(C)(C)[C@H](OC(=O)C12CCC(C)(C(=O)O1)C2(C)C)[C@@H]3OC(=O)C12CCC(C)(C(=O)O1)C2(C)C (some centres not stated)
EC50 [2, 13]: 0.05 µM
selectivity ratio at 96 h [5]: > 15

OC[C@@H](O)C[C@H]1OCC2(O)c3c(cc(O)c4c3O[C@@H](c3cc(O)c(O)c(O)c3)[C@@H](O)C4)OC12O (some centres not stated)
selectivity ratio [1]: 9.5
EC50 [2, 13]: 4 µM

O=C(C[C@H](Cc1ccc(O)c(O)c1)C(=O)O)C1=Cc2cc(O)c(O)cc2[C@H](c2ccc(O)c(O)c2)[C@H]1CC[C@H](Cc1ccc(O)c(O)c1)C(=O)O
selectivity ratio [1]: 33.3
EC50 [2, 13]: 1.9 µM

CC1(C)C=C2[C@H]3CC[C@@H]4[C@@]5(C)CCC(=O)C(C)(C)[C@@H]5CC[C@@]4(C)[C@]3(C)CC[C@@]2(C(=O)O)CC1 [MORONIC ACID]
selectivity ratio [1]: > 186
EC50 [2, 13]: < 0.22 µM

COc1c(C)c(O)c(C(=O)/C=C(\O)c2ccccc2)c(O)c1C=O
selectivity ratio [1]: 489
EC50 [2, 13]: 0.067 µM

C=C(C)[C@@H]1CC[C@]2(C(=O)O)CC[C@]3(C)[C@H](CC[C@@H]4[C@@]5(C)CC[C@H](OC(=O)C(C)(C)CC(=O)O)C(C)(C)[C@@H]5CC[C@]43C)[C@@H]12
IC50 [6]: 15.9 µM
selectivity ratio [7]: 6.7

COc1cc2ccc(=O)oc2c2c1OC(C)(C)[C@H](OC(=O)C13CCC(C)(C(=O)O1)C3(C)C)[C@@H]2OC(=O)C12CCC(C)(C(=O)O1)C2(C)C (some centres not stated)
EC50 ([2]; h9): Not Active

Cc1cc2ccc(=O)oc2c2c1OC(C)(C)[C@H](OC(=O)C13CCC(C)(C(=O)O1)C3(C)C)[C@@H]2OC(=O)C12CCC(C)(C(=O)O1)C2(C)C (some centres not stated)
EC50 [2, 13]: 0.21 µM
selectivity ratio at 96 h [5]: > 16

COc1cc2c(c(OC)c1OC)-c1ccc(SC)cc1C(=O)CC2
IC50 [8]: 0.5 µM

COc1cc2c(cc1O)[C@@H](Cc1ccc(O)cc1)NCC2
selectivity ratio [1]: 125
EC50 [2, 13]: 2.8 µM

CC(C)(O)[C@H](O)COc1c2occc2cc2ccc(=O)oc12 [HERACLENOL]
selectivity ratio [1]: 870
EC50 [2, 13]: 0.38 µM

COC(=O)c1ccc(N[C@@H]2c3cc4c(cc3[C@@H](c3cc(OC)c(O)c(OC)c3)[C@H]3C(=O)OC[C@@H]32)OCO4)cc1
IC50 [9]: 2.5 µM
IC50 [10]: 7 µM
IC50 (KB [11]): 3.3 µM
IC50 (KB [12]): 0.84 µM

COc1cc([C@@H]2c3cc4c(cc3[C@@H](Nc3ccc([N+](=O)[O-])cc3)[C@H]3COC(=O)[C@H]23)OCO4)cc(OC)c1O
IC50 [9]: 6.1 µM
IC50 [10]: 7.7 µM
EC50 [10, 14]: 2 µg/mL (≈ 3.84 µM)
IC50 (KB [11]): 3 µM
IC50 (KB [12]): 0.49 µM
EC50 (KB [12]; [14]): 0.2 µg/mL (≈ 0.384 µM)

O=c1cc(-c2ccccc2F)[nH]c2ccc(N3CCCC3)cc12
IC50 [8]: 0.46 µM

Cc1cc2c(c3oc(=O)ccc13)[C@@H](OC(=O)C13CCC(C)(C(=O)O1)C3(C)C)[C@@H](OC(=O)C13CCC(C)(C(=O)O1)C3(C)C)C(C)(C)O2 (some centres not stated)
EC50 [2, 13]: 0.008 µM
selectivity ratio at 96 h [5]: > 16
